“Also recorded” adds a separate entry of the source.
Columns and labels:
[1] = test system: influenza A H1N1 in MDCK; assay type: cell-based; conditions: 0, 0.1 μM, 1 μM, 10 μM and 100 μM
[2] = test system: iPSC-derived neural precursor cells (NPC) from CLN7 patients; experiment: Patient-derived neural precursor cells, ATP5A immunocytochemistry; assay type: cell-based, human
Procedure: iPSC were generated from two CLN7 patients (Pa380 and Pa474). then characterized and differentiated to NPC as previously described39. […]
NPCs were fixed with 100% iced-cold methanol for 5 min and incubated in blocking solution (1% (v/v) normal goat serum, 0.1% (w/v) bovine serum albumin (BSA), 0.1% (v/v) Triton X-100 in DPBS). […] Slides were mounted with VECTASHIELD Mounting Medium with DAPI, incubated for 24 h at 4° C. and imaged with a Zeiss Axio Imager M2 fluorescence microscope or under an inverted microscope (Nikon; Eclipse Ti-E) equipped with a pre-centred fibre illuminator (Nikon; Intensilight C-HGFI), B/W CCD digital camera (Hamamatsu; ORCA-E.R.). Fluorescence quantification was performed. after appropriate thresholding using the ImageJ software (NIH). The pixel intensity profile of ATP5A immunodecoration was analyzed across the maximal axis of the cell that departs from the nucleus, using the plot profile plugin of ImageJ software. […]

[3] = test system: mouse primary cortical neurons; experiment: NADPH/NADP upon excitotoxic stimuli; assay type: cell-based; conditions: glutamate 100 μM 10 minutes, then inhibitor 0.01 μM 24 hours
Procedure: Neurons were then washed and further incubated in culture medium with the PFKFB3 inhibitors for 24 hours. A colorimetric NADP/NADPH assay kit (Abcam) was used. Cells were resuspended in 500 μl of NADP/NADPH extraction buffer, vortexed and centrifuged at 14,000 rpm for 5 minutes to remove insoluble material. The supernatant was used for NADPH +plus NADP+ measurement. NADPH was determined in 200 μl of the supernatant, after […] 60° C. for 30 minutes to decompose NADP+. Actual NADP and NADPH+ concentrations were calculated by extrapolating values to a NADPH standard curve (0-100 pmol/well).

[4] = test system: mouse primary cortical neurons; experiment: Apoptosis of neurons induced by NMDA and glutamate; assay type: cell-based
[5] = test system: neurons from Cln7 knock out (KO) mice; experiment: In vitro model of Batten disease, active Caspase-3 Western blot; assay type: cell-based, mouse; conditions: 10 nM, 24 hours
Procedure: Primary cultures of C57BL/6J WT and Cln7Δex2 mice cortical neurons were prepared from fetal animals of 14.5 days of gestation, seeded at 1.8·10^5 cells/cm2 in plastic plates coated with poly-D-lysine […] and incubated in Neurobasal (Life Technologies) supplemented with 2 mM glutamine, 5 mM of glucose, 0.25 mM pyruvate and 2% B27 supplement (Life Technologies). Cells were incubated at 37° C. in a humidified 5% CO2-containing atmosphere. At 72 hours after plating, medium was replaced using Neurobasal (Life Technologies) supplemented with 2 mM glutamine, 5 mM glucose, 0.25 mM pyruvate and 2% B27 supplement (Life Technologies) minus antioxidants (MAO; i.e., lacking vitamin E, vitamin E acetate, superoxide dismutase, catalase, and glutathione). Six days after the plating medium was replaced again. Cells were used at day 9.
Neurons were incubated with 10 nM or vehicle for 24 hours and apoptosis was evaluated by measuring the level of active Caspase-3 form using Western blot. Neurons were lysed in RIPA buffer (2% sodium dodecylsulphate, 2 mM EDTA, 2 mM EGTA and 50 mM Tris pH 7.5), supplemented with protease and phosphatase inhibitor cocktail (100 μM phenylmethylsulfonyl fluoride, 50 μg/ml antipapain, 50 μg/ml pepstatin, 50 μg/ml amastatin, 50 μg/ml leupeptin, 50 μg/ml bestatin, 1 mM o-vanadate, 50 mM NaF, and 50 μg/ml soybean trypsin inhibitor) and boiled for 5 min. […]

Cc1noc(C)c1Cn1cc(C#N)c2cc(Oc3ccc(NC(=O)[C@@H]4CCCN4)cc3)ccc21 [AZ67, (2S)-N-[4-({3-cyano-1-[(3,5-dimethyl-1,2-oxazol-4-yl)methyl]-1H-indol-5-yl}oxy)phenyl]pyrrolidine-2-carboxamide]
antiviral activity (anti-HA immunostain) [1]: demonstrate antiviral activity
loss of perinuclear mitochondria [2]: rectified the loss of perinuclear mitochondria
NADPH oxidation / NADPH/NADP ratio [3]: prevented; also recorded: restore NADPH/NADP ratio
apoptotic neuronal death increased by glutamate and NMDA ([4]; FIG. 5): significantly prevented
neuroprotection under PFK1-M overexpression ([4]; PFK1-M overexpression, FIGS. 6B and 6C): abolish the neuroprotection
protection of mouse primary cortical neurons from apoptosis ([4]; apoptosis induced by NMDA and glutamate, FIG. 6A): protect
apoptosis level (active Caspase-3) [5]: significantly reduced

From US20230047816A1 (priority 2018, published 2023)
